In ChEMBL document CHEMBL1201862, “PubChem BioAssay data set” (2004):
Active and inactive are the calls of the source.

Columns and labels:
[1] = P. falciparum Dd2 growth inhibitors, dose response, SYBR Green, cherry-picked samples (AID 1159567); assay type: functional, cell-based
H9c2 = assay: cells; assay type: functional, cell-based; settings: Rattus norvegicus, H9c2, Myocardium;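 further: confirmatory concentration-response retest of ultra-high-throughput screening hits for modulation of myocardial damage; cell death induced by hydrogen peroxide oxidative stress; compound pretreatment for 60 min then peroxide exposure for 2 h; potency is for protecting the cells against peroxide damage rather than for killing them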
[2] = biological target: T1, Rac GTPase-activating protein 1 (Homo sapiens, UniProt Q9H0H5); assay: blockers of MgcRacGAP-driven Rac1 GTP hydrolysis – biochemical, ADP Hunter fluorescence, primary and confirmatory, confirmation (AID 624330); assay type: functional
T1 sequence (Q9H0H5 whole entry): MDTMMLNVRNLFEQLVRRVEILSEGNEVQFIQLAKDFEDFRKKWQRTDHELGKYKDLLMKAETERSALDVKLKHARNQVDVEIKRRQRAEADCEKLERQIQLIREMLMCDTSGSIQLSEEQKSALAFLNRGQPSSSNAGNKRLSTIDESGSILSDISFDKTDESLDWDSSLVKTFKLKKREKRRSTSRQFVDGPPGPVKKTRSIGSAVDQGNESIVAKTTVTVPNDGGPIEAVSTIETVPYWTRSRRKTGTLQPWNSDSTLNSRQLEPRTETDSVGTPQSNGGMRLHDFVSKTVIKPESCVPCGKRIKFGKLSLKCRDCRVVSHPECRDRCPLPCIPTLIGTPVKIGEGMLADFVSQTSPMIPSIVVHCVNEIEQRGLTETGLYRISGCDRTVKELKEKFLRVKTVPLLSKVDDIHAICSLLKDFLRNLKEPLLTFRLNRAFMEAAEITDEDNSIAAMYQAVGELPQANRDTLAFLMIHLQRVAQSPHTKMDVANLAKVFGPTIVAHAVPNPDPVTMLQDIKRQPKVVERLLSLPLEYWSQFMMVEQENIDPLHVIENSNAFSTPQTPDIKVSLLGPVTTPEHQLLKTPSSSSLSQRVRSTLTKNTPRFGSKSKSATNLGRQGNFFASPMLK

[3] = biological target: T2, Heat shock factor protein 1 (Mus musculus, UniProt P38532); assay: enhancement of HSF1-driven luciferase signal – cell-based, NIH3T3, luminescence, dose retest, confirmation (AID 435004); assay type: functional;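 further: stress induced by proteasome inhibitor MG132 added 30 min after compound; luciferase reporter driven by HSF1 response element in NIH3T3 cells; actives raise luminescence as potentiators of the MG132 stress response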
T2 sequence (P38532 whole entry): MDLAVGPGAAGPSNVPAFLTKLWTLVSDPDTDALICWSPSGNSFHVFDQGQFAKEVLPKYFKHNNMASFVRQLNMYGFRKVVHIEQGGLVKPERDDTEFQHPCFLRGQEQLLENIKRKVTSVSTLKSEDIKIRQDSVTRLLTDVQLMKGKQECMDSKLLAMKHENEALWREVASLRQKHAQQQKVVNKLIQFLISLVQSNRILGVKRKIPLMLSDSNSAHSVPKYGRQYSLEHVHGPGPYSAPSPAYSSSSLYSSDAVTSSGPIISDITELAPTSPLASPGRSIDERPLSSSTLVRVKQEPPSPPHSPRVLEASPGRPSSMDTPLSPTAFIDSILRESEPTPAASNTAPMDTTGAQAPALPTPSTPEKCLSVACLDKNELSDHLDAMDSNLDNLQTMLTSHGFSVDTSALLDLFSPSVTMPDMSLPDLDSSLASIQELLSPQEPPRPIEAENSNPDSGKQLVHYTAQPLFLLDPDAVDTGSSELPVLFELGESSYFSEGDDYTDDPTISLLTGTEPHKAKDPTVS

Protein skinhead-1 = biological target: T3, Protein skinhead-1 (Caenorhabditis elegans, UniProt P34707); assay type: functional
T3 sequence (P34707 whole entry): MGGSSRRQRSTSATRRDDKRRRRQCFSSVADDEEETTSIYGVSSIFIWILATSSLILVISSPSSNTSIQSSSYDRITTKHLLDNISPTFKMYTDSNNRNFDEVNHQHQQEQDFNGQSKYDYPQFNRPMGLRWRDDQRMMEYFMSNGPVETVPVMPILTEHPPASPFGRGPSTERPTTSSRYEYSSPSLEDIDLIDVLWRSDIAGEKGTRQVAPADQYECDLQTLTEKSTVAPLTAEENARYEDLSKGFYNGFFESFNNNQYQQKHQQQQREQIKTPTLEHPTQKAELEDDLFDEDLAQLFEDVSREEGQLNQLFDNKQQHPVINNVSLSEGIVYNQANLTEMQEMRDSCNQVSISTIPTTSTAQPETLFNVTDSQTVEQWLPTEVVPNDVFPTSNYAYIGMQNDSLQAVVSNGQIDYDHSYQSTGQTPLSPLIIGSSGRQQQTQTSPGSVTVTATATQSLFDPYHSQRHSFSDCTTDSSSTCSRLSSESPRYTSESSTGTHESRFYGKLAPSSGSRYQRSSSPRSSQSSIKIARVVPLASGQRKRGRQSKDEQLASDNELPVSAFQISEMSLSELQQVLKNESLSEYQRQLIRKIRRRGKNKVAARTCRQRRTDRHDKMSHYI

[4] = Luminescence Cell-Based Dose Retest to Confirm Inhibitors of Cancer Stem Cells. [Related pubchem assays (depositor defined):AID2717, AID2721]; assay type: functional; settings: Homo sapiens
Paired box protein Pax-8 = Paired box protein Pax-8 (Homo sapiens, UniProt Q06710); assay: PAX8 transcriptional activity inhibition in RMG-I – RMG-I cells, luciferase, cherry-pick, dose response (AID 687027); assay type: functional, cell-based;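 further: luciferase reporter driven by Pax8 target thyroperoxidase promoter measured by SteadyGlo luminescence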
Chain of Paired box protein Pax-8 (Q06710 whole entry): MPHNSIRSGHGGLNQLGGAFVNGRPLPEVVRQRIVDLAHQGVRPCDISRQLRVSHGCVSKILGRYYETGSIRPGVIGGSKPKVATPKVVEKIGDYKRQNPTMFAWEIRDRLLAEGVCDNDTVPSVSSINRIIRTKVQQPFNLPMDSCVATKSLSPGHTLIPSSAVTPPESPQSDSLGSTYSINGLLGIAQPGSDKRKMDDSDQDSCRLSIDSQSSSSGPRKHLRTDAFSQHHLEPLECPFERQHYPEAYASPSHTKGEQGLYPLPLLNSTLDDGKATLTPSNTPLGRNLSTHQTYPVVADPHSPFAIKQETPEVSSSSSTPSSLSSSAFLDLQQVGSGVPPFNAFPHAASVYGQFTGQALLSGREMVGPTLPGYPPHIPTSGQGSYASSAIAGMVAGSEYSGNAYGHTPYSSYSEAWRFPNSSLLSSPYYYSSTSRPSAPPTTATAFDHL

[5] = NIH3T3 cell viability loss – ATP luminescence, mouse fibroblasts, counter-screen, dose response (AID 2010); assay type: functional, cell-based;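 further: cells exposed to compound for about 90 hours before reading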
[6] = Trypanosoma cruzi growth suppression in host cells – NIH3T3 host cells, beta-gal luminescence, confirmation (AID 2044); assay type: functional, cell-based;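 further: intracellular parasites grown in NIH/3T3 mouse fibroblasts as host cells; luminescent beta-galactosidase reporter signal from transgenic T. cruzi replicating inside host cells; inhibitors lower the luminescence signal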
H4 = assay: Luminescence Cell-Based Dose Response HTS to Identify Activators of 5'UTR Stem-Loop Driven Prion Protein mRNA Translation in H4 Neuroglioblastoma Cells. [Related pubchem assays: 1829 (Project Summary), 1814 (Primary HTS)]; assay type: functional; settings: Homo sapiens
[7] = Luminescence Cell-Based Dose Response HTS to Identify Activators of Luciferase Translation or Activity in H4 […] Cells. [Related pubchem assays: 1829 (Project Summary), 1814 (Primary HTS)]; assay type: functional
[8] = Luminescence Cell-Based Dose Confirmation HTS to Identify Activators of 5'UTR Stem-Loop Driven Alpha-Synuclein mRNA Translation in H4 Neuroglioblastoma Cells. [Related pubchem assays: 1829 (Project Summary), 1814 (Primary HTS)]; assay type: functional

CO[C@@H]1CN(C)C(=O)c2ccc(NC(=O)C3CCC3)cc2OC[C@@H](C)N(CC2CCCCC2)C[C@H]1C
AC50 [1]: 4.4 µM (active)

O=S(=O)(c1cccc(F)c1)N1CCN(c2nc(-c3cccnc3)nc3ccccc23)CC1
IC50 (H9c2): > 79 µM (inactive)

O=C(c1ccccc1)c1ccc2nc(N3CCN(C(=O)c4ccco4)CC3)c3nncn3c2c1
IC50 (H9c2): > 79 µM (inactive)

Cc1cc(Br)cc(/C=N/c2ccc(N3CCOCC3)cc2)c1O
IC50 [2]: 14.6 µM (active)
IC50 (H9c2): 19.7 µM (active)

COc1ccc(-c2oc(=O)c3cc(OC)c(OC)cc3c2C#CCCO)cc1
IC50 (H9c2): > 79 µM (inactive)

COc1ccc(NC(=O)Nc2ccc3c(c2)CC(=O)N([C@@H](C)CO)C[C@@H](C)[C@H](CN(C)CC2CCCCC2)O3)cc1
AC50 [1]: 4.85 µM (active)

Cc1ccc(-c2cn(S(=O)(=O)c3ccc(C)cc3)nc2N)cc1
EC50 [3]: > 260 µM (inactive)

O=[N+]([O-])c1cccc(-c2csc(Nc3ccccc3)n2)c1
IC50 (Protein skinhead-1): > 100 µM (inactive)
AC50 [4]: 4.04 µM (active)

COc1ccc2c3c([nH]c2c1)[C@H](CO)N(Cc1ccccc1F)CC31CN(C(=O)C2CCCC2)C1
AC50 [1]: 9.56 µM (active)

CC1=C(Sc2nc3ccccc3[nH]2)C(=O)NC(C)(C)C1
EC50 [3]: > 260 µM (inactive)

COc1cc(/C=C/C(=O)Nc2ccc3nc4n(c(=O)c3c2)CCCC4)cc(OC)c1OC
IC50 (H9c2): > 79 µM (inactive)

N#Cc1ccc(-c2ccc([C@@H]3[C@@H]4CN(S(=O)(=O)Cc5ccccc5)C[C@H]3N4)cc2)cc1
AC50 [1]: 6.48 µM (active)

C[C@H]1CN([C@@H](C)CO)C(=O)Cc2cc(NC(=O)Nc3ccc(C(F)(F)F)cc3)ccc2O[C@H]1CN(C)C(=O)NC1CCCCC1
AC50 (Paired box protein Pax-8): 10.2 µM (active)

CC1CN(c2nn3c(=O)c4ccccc4nc3c3ccccc23)CC(C)O1 (centres undefined)
IC50 (H9c2): > 79 µM (inactive)

Cc1ccc(O)c(NC(=O)c2onc(C)c2Cl)c1
EC50 [3]: 3.11 µM (active)

CC(C)(c1ccccc1)c1ccc(OCCCN2CCNCC2)cc1
EC50 [3]: 60.7 µM (active)
EC50 [5]: 15.1 µM (active)
EC50 [6]: 2.42 µM (active)
AC50 [4]: 0.2 µM (active)

CC(C)c1ccc2[nH]c3c(c2c1)[C@@H]1CCN2C(=O)CCC[C@H](C3)[C@H]12
EC50 (H4): > 120 µM (not active)
EC50 [7]: 53.6 µM (active)
EC50 [8]: 11.9 µM (active)
